Assay results taken from patent publication US9266880B2, “Substituted azaindazole compounds” (Bristol-Myers Squibb Company, priority 2010, dated 2016).

target: Human CYP17 (Homo sapiens (Human), UniProt P05093); test: CYP17 Total SPA Assay; assay type: biochemical; conditions: microsomes from HEK2 cells stably transfected with CYP17; 3H-Pregnenolone 1 uM, NADPH 2 mM; 45 minutes at room temperature
Protocol: The assays were performed in U-bottom 384-well optiplates. The final assay volume was 15 μl prepared from 7.5 μl additions of microsomes (prepared as a high-speed pellet from homogenized HEK2 cells stably transfected with CYP17), substrates (3H— Pregnenolone and NADPH) and test compounds in assay buffer (50 mM Potassium phosphate pH 7.2, 10% glycerol). The reaction was initiated by the combination of the microsomes and substrates in wells containing compound. The reaction was incubated at room temperature for 45 minutes and terminated by adding 7.5 μl of 0.2N HCl to each well. Following an incubation period of 10 minutes, anti-DHEA-coated SPA beads were added to the terminated reaction. The plate was sealed and incubated overnight with shaking at 4° C. The beads were allowed to settle in the plate for 1 hour and the plate read on a TOPCOUNT® (Perkin-Elmer) plate reader.
Inhibition data were calculated by comparison to no enzyme control reactions for 100% inhibition and vehicle-only reactions for 0% inhibition. The final concentration of reagents in the assays are NADPH, 2 mM; 3H-Pregnenolone, 1 uM; microsomes, 1.25 ug/ml; Anti-DHEA-SPA beads (0.125 mg/well) in 0.5% Triton X-100 and DMSO, 0.05%. Dose response curves were generated to determine the concentration required inhibiting 50% of enzyme activity (IC50). Compounds were dissolved at 10 mM in dimethylsulfoxide (DMSO) and evaluated at eleven concentrations, each in duplicate. IC50 values were derived by non-linear regression analysis.

Sequence of Human CYP17 (P05093 whole entry): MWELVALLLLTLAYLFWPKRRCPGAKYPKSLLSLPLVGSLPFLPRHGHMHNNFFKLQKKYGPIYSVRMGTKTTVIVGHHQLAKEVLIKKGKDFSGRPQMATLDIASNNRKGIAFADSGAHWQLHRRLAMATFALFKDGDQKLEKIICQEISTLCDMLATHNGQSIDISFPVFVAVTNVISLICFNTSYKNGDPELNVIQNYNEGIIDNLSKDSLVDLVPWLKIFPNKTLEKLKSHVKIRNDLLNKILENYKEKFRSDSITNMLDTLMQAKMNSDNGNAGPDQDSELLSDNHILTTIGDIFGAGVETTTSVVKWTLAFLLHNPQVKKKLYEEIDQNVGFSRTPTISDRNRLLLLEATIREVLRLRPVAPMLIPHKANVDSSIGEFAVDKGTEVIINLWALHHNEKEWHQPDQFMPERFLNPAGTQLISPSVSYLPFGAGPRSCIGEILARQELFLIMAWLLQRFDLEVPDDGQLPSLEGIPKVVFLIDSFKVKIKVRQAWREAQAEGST

SMILES | IC50
NS(=O)(=O)c1cccc(-n2ncc3c(-c4cncc5ncccc45)ccnc32)c1 [Example 5, 3-(4-(1,7-Naphthyridin-5-yl)-1H-pyrazolo[3,4-b]pyridin-1-yl)benzenesulfonamide] | 206 nM
Fc1ccc(-n2ncc3c(-n4ccnc4)ccnc32)cc1 [Example 2, 1-(4-Fluorophenyl)-4-(1H-imidazol-1-yl)-1H-pyrazolo[3,4-b]pyridine] | 640 nM
Cn1cncc1-c1ccnc2c1cnn2-c1cccc(S(N)(=O)=O)c1 [Example 6, 3-(4-(1-Methyl-1H-imidazol-5-yl)-1H-pyrazolo[3,4-b]pyridin-1-yl)benzenesulfonamide] | 271 nM
Fc1ccc(-n2ncc3c(-c4cncc5ccccc45)ccnc32)cc1 [Example 1, 4-(1-(4-Fluorophenyl)-1H-pyrazolo[3,4-b]pyridin-4-yl)isoquinoline] | 128 nM

The next molecules have a lower IC50 than those just listed; values first:

IC50 | SMILES
76 nM | Fc1ccc(-n2ncc3c(-c4cncn5cccc45)ccnc32)c(F)c1 [Example 8, 1-(2,4-Difluorophenyl)-4-(pyrrolo[1,2-c]pyrimidin-4-yl)-1H-pyrazolo[3,4-b]pyridine]
50 nM | Cn1cncc1-c1ccnc2c1cnn2-c1ccc(F)cc1 [Example 4, 1-(4-Fluorophenyl)-4-(1-methyl-1H-imidazol-5-yl)-1H-pyrazolo[3,4-b]pyridine]
41 nM | Fc1ccc(-n2ncc3c(-c4cncc5ncccc45)ccnc32)cc1 [Example 3, 5-(1-(4-Fluorophenyl)-1H-pyrazolo[3,4-b]pyridin-4-yl)-1,7-naphthyridine]
23 nM | NS(=O)(=O)c1cccc(-n2ncc3c(-c4cncc5ccccc45)ccnc32)c1 [Example 7, 3-(4-(Isoquinolin-4-yl)-1H-pyrazolo[3,4-b]pyridin-1-yl)benzenesulfonamide]
